Measurements as given in article PMC9299836 (eLife, 2022).
pEC50: −log10 of the molar value. “And” between values parts separate entries of the source, which are not always exact repeats. Identical values can stand only once. Like-named read-outs stand apart in the source and are kept apart here.

Legend:
mGluR2 [1] = target: mGluR2 (Mus musculus, UniProt Q14BI2, A548F); assay: Live-cell FRET, azi-CRD (cysteine-rich domain) sensor in HEK293T cells; conditions: for Normalized FRET response, Mean (azi-CRD agonist DRC): maximal responses normalized to 1mM glutamate
mGluR2 [2] = target: T1, mGluR2 (Mus musculus, UniProt Q14BI2); assay: Live-cell FRET, SNAP-m2 (VFT domain) inter-subunit sensor in HEK293T cells; conditions: for Normalized FRET response, Mean (SNAP-m2 agonist DRC): maximal responses normalized to 1mM glutamate;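 on all read-outs here: apparent FRET efficiency from whole-membrane ROIs of single cells, corrected for donor bleed-through and background, ΔFRET as treatment minus pretreatment signal, recorded at room temperature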
mGluR2 [3] = target: mGluR2 (Mus musculus, UniProt Q14BI2, INS715F); assay: Live-cell FRET, azi-ECL2 (7TM domain, extracellular loop 2) sensor in HEK293T cells;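 further: Cy3/Cy5 click-labeled sensor, whole-membrane ROIs per cell, apparent FRET after bleed-through correction, ΔFRET as treatment minus pre-treatment signal, at room temperature, at least three biological replicates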
mGluR2 [4] = target: T1, mGluR2; assay: Functional calcium imaging, SNAP-mGluR2 (no FLAG-tag) with chimeric G protein Gqo5 in HEK293T cells; assay type: cell-based; set-up: Full length mGluR2 construct with an amber codon (TAG) mutation of amino acid A548 (azi-CRD) or N-terminal SNAP-tag (SNAP-mGluR2); host or cells: HEK293T; conditions: for Intracellular Ca2+ response, Mean / Intracellular Ca2+ response: normalized to 1mM glutamate; for Intracellular Ca2+ response: single experiments

Sequence of mGluR2 (Mus musculus, UniProt Q14BI2, INS715F) (Q14BI2 with tags, fused parts or gaps INS715F): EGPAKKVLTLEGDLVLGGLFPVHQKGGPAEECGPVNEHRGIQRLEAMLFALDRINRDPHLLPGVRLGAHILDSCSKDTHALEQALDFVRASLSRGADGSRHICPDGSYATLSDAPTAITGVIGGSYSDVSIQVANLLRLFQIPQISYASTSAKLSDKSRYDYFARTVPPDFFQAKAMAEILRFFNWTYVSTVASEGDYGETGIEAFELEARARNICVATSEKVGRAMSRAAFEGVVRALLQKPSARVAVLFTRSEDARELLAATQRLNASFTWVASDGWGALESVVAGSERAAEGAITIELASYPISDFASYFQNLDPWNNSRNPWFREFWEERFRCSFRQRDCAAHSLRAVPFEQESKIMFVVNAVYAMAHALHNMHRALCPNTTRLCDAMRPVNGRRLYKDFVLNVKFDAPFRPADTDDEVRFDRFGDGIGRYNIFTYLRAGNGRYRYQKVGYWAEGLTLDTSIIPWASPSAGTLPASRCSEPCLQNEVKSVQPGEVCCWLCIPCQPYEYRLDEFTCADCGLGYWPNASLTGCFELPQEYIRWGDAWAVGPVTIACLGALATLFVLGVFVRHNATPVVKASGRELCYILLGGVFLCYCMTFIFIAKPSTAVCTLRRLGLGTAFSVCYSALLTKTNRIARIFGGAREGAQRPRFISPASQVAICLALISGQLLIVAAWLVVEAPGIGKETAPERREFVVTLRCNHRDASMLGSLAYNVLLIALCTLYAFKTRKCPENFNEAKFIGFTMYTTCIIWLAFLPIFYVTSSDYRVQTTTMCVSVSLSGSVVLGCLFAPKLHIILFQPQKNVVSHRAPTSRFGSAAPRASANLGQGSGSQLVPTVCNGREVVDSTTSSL
T1 sequence (Q14BI2 19-872): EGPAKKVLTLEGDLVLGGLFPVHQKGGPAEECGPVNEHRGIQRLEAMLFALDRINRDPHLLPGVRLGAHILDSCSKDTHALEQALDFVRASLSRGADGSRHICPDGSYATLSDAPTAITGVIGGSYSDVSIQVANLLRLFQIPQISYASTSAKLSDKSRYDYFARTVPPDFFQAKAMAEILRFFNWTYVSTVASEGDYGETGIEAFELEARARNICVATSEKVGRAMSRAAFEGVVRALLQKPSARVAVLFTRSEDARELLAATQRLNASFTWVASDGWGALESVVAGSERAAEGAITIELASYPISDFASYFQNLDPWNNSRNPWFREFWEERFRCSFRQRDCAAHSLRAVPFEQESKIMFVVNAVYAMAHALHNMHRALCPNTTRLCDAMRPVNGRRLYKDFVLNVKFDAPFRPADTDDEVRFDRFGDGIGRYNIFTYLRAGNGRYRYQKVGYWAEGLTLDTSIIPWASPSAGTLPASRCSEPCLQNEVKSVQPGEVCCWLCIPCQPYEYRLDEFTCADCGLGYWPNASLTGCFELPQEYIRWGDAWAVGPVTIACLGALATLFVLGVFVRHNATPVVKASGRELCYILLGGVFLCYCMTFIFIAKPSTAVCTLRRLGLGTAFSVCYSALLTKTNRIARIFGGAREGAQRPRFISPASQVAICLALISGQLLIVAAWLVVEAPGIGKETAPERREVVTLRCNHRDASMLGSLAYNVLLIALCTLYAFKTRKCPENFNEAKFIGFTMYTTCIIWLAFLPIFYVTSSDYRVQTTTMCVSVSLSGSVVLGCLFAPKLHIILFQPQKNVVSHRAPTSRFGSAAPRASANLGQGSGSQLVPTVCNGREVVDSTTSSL
Sequence of mGluR2 (Mus musculus, UniProt Q14BI2, A548F) (Q14BI2 19-872 A548F): as the sequence (Q14BI2 19-872) above, with A530F counted along it

N[C@@]1(C(=O)O)CN[C@@H](C(=O)O)C1 [(2R,4R)-APDC]
Hill slope (mGluR2 [1]; azi-CRD sensor, orthosteric agonist alone): 1.10
Live-cell FRET max response normalized to 1mM glutamate (mGluR2 [1]; azi-CRD sensor, (2R,4R)-APDC, individual values (N=13)): 1.025 and 1.046 and 1.029 and 1.018 and 1.041 and 0.9926 and 1.05 and 1.031 and 1.033 and 1.059 and 0.9828 and 0.9967 and 0.9994
Mean max response (normalized max ΔFRET) (mGluR2 [1]; azi-CRD, agonist alone (1 mM glutamate, 100 μM DCG-IV, 20 μM LY379268, 100 μM APDC), normalized to 1 mM glutamate): 1.02
Normalized Max ΔFRET (mGluR2 [1]; azi-CRD, 100μM agonist, individual cells, normalized to 1mM glutamate): 105.882 and 99.2629 and 105.009 and 103.1 and 103.252 and 98.2759 and 99.67 and 99.937 and 102.531 and 104.556 and 102.893 and 101.835 and 104.136
Normalized Max ΔFRET, Mean (mGluR2 [1]; azi-CRD, 100μM agonist, mean of cells, normalized to 1mM glutamate): 102.334
Normalized FRET response, Mean (azi-CRD agonist DRC) (mGluR2 [1]; log[ligand] (M) -4): 1.023
Normalized FRET response, Mean (azi-CRD agonist DRC) (mGluR2 [1]; log[ligand] (M) -4.1549): 1.003
Normalized FRET response, Mean (azi-CRD agonist DRC) (mGluR2 [1]; log[ligand] (M) -4.52288): 0.929
Normalized FRET response, Mean (azi-CRD agonist DRC) (mGluR2 [1]; log[ligand] (M) -5): 0.7432
Normalized FRET response, Mean (azi-CRD agonist DRC) (mGluR2 [1]; log[ligand] (M) -5.39794): 0.4945
Normalized FRET response, Mean (azi-CRD agonist DRC) (mGluR2 [1]; log[ligand] (M) -5.82391): 0.2779
Normalized FRET response, Mean (azi-CRD agonist DRC) (mGluR2 [1]; log[ligand] (M) -6.52288): 0.07413
Normalized FRET response, Mean (azi-CRD agonist DRC) (mGluR2 [1]; log[ligand] (M) -7): 0
pEC50 (mGluR2 [1]; read-out: Mean half-maximum effective concentration (EC50), azi-CRD sensor, orthosteric agonist alone): 5.19
Mean max response (normalized max ΔFRET) (mGluR2 [2]; SNAP-m2 (VFT), agonist alone (1 mM glutamate, 100 μM DCG-IV, 20 μM LY379268, 100 μM APDC), normalized to 1 mM glutamate): 0.96
Normalized Max ΔFRET (mGluR2 [2]; SNAP-m2, 100μM agonist, individual cells, normalized to 1mM glutamate): 103.479 and 93.3266 and 93.5994 and 94.2433 and 93.7977 and 94.1947 and 102.7 and 100.974 and 101.936 and 101.611 and 93.0019 and 94.3775 and 90.2119 and 91.2088
Normalized Max ΔFRET, Mean (mGluR2 [2]; SNAP-m2, 100μM agonist, mean of cells, normalized to 1mM glutamate): 96.333
Hill slope (mGluR2 [2]; SNAP-m2 sensor, orthosteric agonist alone): –1.10
Live-cell FRET max response normalized to 1mM glutamate (mGluR2 [2]; SNAP-m2 sensor, (2R,4R)-APDC, individual values (N=14)): 1.016 and 0.93 and 0.9438 and 0.9021 and 0.9121 and 0.9333 and 0.936 and 0.9424 and 0.938 and 0.9419 and 1.035 and 1.027 and 1.01 and 1.019
Normalized FRET response, Mean (SNAP-m2 agonist DRC) (mGluR2 [2]; log[ligand] (M) -4): -0.9633
Normalized FRET response, Mean (SNAP-m2 agonist DRC) (mGluR2 [2]; log[ligand] (M) -4.52288): -0.8729
Normalized FRET response, Mean (SNAP-m2 agonist DRC) (mGluR2 [2]; log[ligand] (M) -5): -0.684
Normalized FRET response, Mean (SNAP-m2 agonist DRC) (mGluR2 [2]; log[ligand] (M) -5.39794): -0.4889
Normalized FRET response, Mean (SNAP-m2 agonist DRC) (mGluR2 [2]; log[ligand] (M) -6): -0.1727
Normalized FRET response, Mean (SNAP-m2 agonist DRC) (mGluR2 [2]; log[ligand] (M) -6.52288): -0.05437
Normalized FRET response, Mean (SNAP-m2 agonist DRC) (mGluR2 [2]; log[ligand] (M) -7): 0
Normalized FRET response, Mean (SNAP-m2 agonist DRC) (mGluR2 [2]; log[ligand] (M) -7.69897): 0
pEC50 (mGluR2 [2]; read-out: Live-cell FRET titration EC50, SNAP-m2, agonist alone, individual experiments): 5.54 and 5.52 and 5.50 and 4.66 and 5.26 and 5.31
pEC50 (mGluR2 [2]; read-out: Mean half-maximum effective concentration (EC50), SNAP-m2 sensor, orthosteric agonist alone): 5.16
Mean max response (normalized max ΔFRET) (mGluR2 [3]; azi-ECL2, agonist alone (1 mM glutamate, 100 μM DCG-IV, 20 μM LY379268, 100 μM APDC), normalized to 1 mM glutamate): 1.05
Normalized ΔFRET response, Mean (agonist DRC) (mGluR2 [3]; azi-ECL2, log[agonist] (M) -4, normalized to 1 mM glutamate): 1.046
Normalized ΔFRET response, Mean (agonist DRC) (mGluR2 [3]; azi-ECL2, log[agonist] (M) -4.1549, normalized to 1 mM glutamate): 1.0205
Normalized ΔFRET response, Mean (agonist DRC) (mGluR2 [3]; azi-ECL2, log[agonist] (M) -4.52288, normalized to 1 mM glutamate): 0.9248
Normalized ΔFRET response, Mean (agonist DRC) (mGluR2 [3]; azi-ECL2, log[agonist] (M) -5, normalized to 1 mM glutamate): 0.7108
Normalized ΔFRET response, Mean (agonist DRC) (mGluR2 [3]; azi-ECL2, log[agonist] (M) -5.39794, normalized to 1 mM glutamate): 0.4486
Normalized ΔFRET response, Mean (agonist DRC) (mGluR2 [3]; azi-ECL2, log[agonist] (M) -5.82391, normalized to 1 mM glutamate): 0.2358
Normalized ΔFRET response, Mean (agonist DRC) (mGluR2 [3]; azi-ECL2, log[agonist] (M) -6.52288, normalized to 1 mM glutamate): 0.04024
Normalized ΔFRET response, Mean (agonist DRC) (mGluR2 [3]; azi-ECL2, log[agonist] (M) -7, normalized to 1 mM glutamate): 0
Normalized Max ΔFRET, Mean (mGluR2 [3]; azi-ECL2, 100μM agonist, mean of cells, normalized to 1mM glutamate): 104.617
Hill slope (mGluR2 [3]; azi-ECL2 sensor, orthosteric agonist alone): 1.14
pEC50 (mGluR2 [3]; read-out: EC50, live-cell FRET titration, azi-ECL2 sensor, (2R,4R)-APDC, individual cell values (N=13)): 5.05 and 4.96 and 4.72 and 5.36 and 5.59 and 5.67 and 5.20 and 5.21 and 5.50 and 5.33 and 5.39 and 5.26
pEC50 (mGluR2 [3]; read-out: Mean half-maximum effective concentration (EC50), azi-ECL2 sensor, orthosteric agonist alone): 5.17
Normalized Max Intracellular Ca2+ Response, individual experiments (mGluR2 [4]; 100 μM DCG-IV, 10 μM LY379268, 300 μM APDC, normalized to 1 mM glutamate, single replicate): 1.151 and 1.196 and 0.9567
Normalized Max Intracellular Ca2+ Response, mean (mGluR2 [4]; 1 mM Glu, 100 μM DCG-IV, 10 μM LY379268, 300 μM APDC, normalized to 1 mM glutamate): 1.101
Intracellular Ca2+ response, Mean (mGluR2 [4]; log[agonist] (M) -3.52288): 1.101
Intracellular Ca2+ response (mGluR2 [4]; log[agonist] (M) -3.52288): 1.101
Intracellular Ca2+ response, Mean (mGluR2 [4]; log[agonist] (M) -3.82391): 1.121
Intracellular Ca2+ response (mGluR2 [4]; log[agonist] (M) -3.82391): 1.13 and 1.129 and 1.105
Intracellular Ca2+ response, Mean (mGluR2 [4]; log[agonist] (M) -4): 1.103
Intracellular Ca2+ response (mGluR2 [4]; log[agonist] (M) -4): 1.155 and 1.085 and 1.068
Intracellular Ca2+ response, Mean (mGluR2 [4]; log[agonist] (M) -4.52288): 0.9624
Intracellular Ca2+ response (mGluR2 [4]; log[agonist] (M) -4.52288): 0.9835 and 0.9555 and 0.9483
Intracellular Ca2+ response, Mean (mGluR2 [4]; log[agonist] (M) -5): 0.7274
Intracellular Ca2+ response (mGluR2 [4]; log[agonist] (M) -5): 0.6253 and 0.7115 and 0.8453
Intracellular Ca2+ response, Mean (mGluR2 [4]; log[agonist] (M) -5.39794): 0.3932
Intracellular Ca2+ response (mGluR2 [4]; log[agonist] (M) -5.39794): 0.2825 and 0.3895 and 0.5075
Intracellular Ca2+ response, Mean (mGluR2 [4]; log[agonist] (M) -6): 0
Intracellular Ca2+ response (mGluR2 [4]; log[agonist] (M) -6): 0
Intracellular Ca2+ response, Mean (mGluR2 [4]; log[agonist] (M) -6.52288): 0
Intracellular Ca2+ response (mGluR2 [4]; log[agonist] (M) -6.52288): 0
Intracellular Ca2+ response, Mean (mGluR2 [4]; log[agonist] (M) -7): 0
Intracellular Ca2+ response (mGluR2 [4]; log[agonist] (M) -7): 0
Intracellular Ca2+ response, Mean (mGluR2 [4]; log[agonist] (M) -7.69897): 0
Intracellular Ca2+ response (mGluR2 [4]; log[agonist] (M) -7.69897): 0
Intracellular Ca2+ response, Mean (mGluR2 [4]; log[agonist] (M) -8): 0
Intracellular Ca2+ response (mGluR2 [4]; log[agonist] (M) -8): 0
pEC50 (mGluR2 [4]; one value per experiment, read-out: EC50, intracellular Ca2+ response): 5.35 and 5.07 and 5.18
